From PubChem BioAssay AID2060486 (Molecular Pharmacology Branch, DTP, NCI, 2025)

Test system: IGROV1 complex spheroids (HUVEC, MSC), viability % test/control
Assay: Anticancer human tumor IGROV1 cell line growth inhibition [GQUAD];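 also: spheroids exposed to compounds for 7 days before readout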;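 as to viability, T/C: 100% = DMSO vehicle control viability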
Settings: for IC50: curve of first compound; for viability, T/C: stronger effect = lower value; active = viability on the fitted dose curve at most 10% of control; inactive = the rest
Outline: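 Multi-cell-type spheroids of tumor cells with HUVEC and mesenchymal stem cells, treated with drug combinations. Concentrations descend in half-log steps from near clinical Cmax, or from 10 microM where Cmax is unknown; viability read-out.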

[1] = second compound 0.0316 µM, first compound 0.0316 µM
[2] = second compound 0.0316 µM, first compound 0.1 µM
[3] = second compound 0.0316 µM, first compound 0.316 µM
[4] = second compound 0.0316 µM, first compound 1 µM
[5] = second compound 0.0316 µM, first compound 3.16 µM
[6] = second compound 0.0316 µM, first compound 10 µM
[7] = second compound 0.1 µM, first compound 0.0316 µM
[8] = second compound 0.1 µM, first compound 0.1 µM
[9] = second compound 0.1 µM, first compound 0.316 µM
[10] = second compound 0.1 µM, first compound 1 µM
[11] = second compound 0.1 µM, first compound 3.16 µM
[12] = second compound 0.1 µM, first compound 10 µM
[13] = second compound 0.316 µM, first compound 0.0316 µM
[14] = second compound 0.316 µM, first compound 0.1 µM
[15] = second compound 0.316 µM, first compound 0.316 µM
[16] = second compound 0.316 µM, first compound 1 µM
[17] = second compound 0.316 µM, first compound 3.16 µM
[18] = second compound 0.316 µM, first compound 10 µM
[19] = second compound 1 µM, first compound 0.0316 µM
[20] = second compound 1 µM, first compound 0.1 µM
[21] = second compound 1 µM, first compound 0.316 µM
[22] = second compound 1 µM, first compound 1 µM
[23] = second compound 1 µM, first compound 3.16 µM
[24] = second compound 1 µM, first compound 10 µM
[25] = second compound 3.16 µM, first compound 0.0316 µM
[26] = second compound 3.16 µM, first compound 0.1 µM
[27] = second compound 3.16 µM, first compound 0.316 µM
[28] = second compound 3.16 µM, first compound 1 µM
[29] = second compound 3.16 µM, first compound 3.16 µM
[30] = second compound 3.16 µM, first compound 10 µM
[31] = second compound 10 µM, first compound 0.0316 µM
[32] = second compound 10 µM, first compound 0.1 µM
[33] = second compound 10 µM, first compound 0.316 µM
[34] = second compound 10 µM, first compound 1 µM
[35] = second compound 10 µM, first compound 3.16 µM
[36] = second compound 10 µM, first compound 10 µM

C#Cc1c(F)ccc2cc(O)cc(-c3ncc4c(N5CC6CCC(C5)N6)nc(OCC56CCCN5CC(F)C6)nc4c3F)c12 (centres undefined) + Cc1[nH]c2ccc(F)cc2c1-c1nc2c3cccnc3c3ncccc3c2[nH]1
3.92 µM: IC50 (second compound 0.316 µM)
active: viability, T/C [19] 2.66% | viability, T/C [20] 3.87% | viability, T/C [21] 2.81% | viability, T/C [22] 3.06% | viability, T/C [23] 2.68% | viability, T/C [24] 1.82% | viability, T/C [25] 3.12% | viability, T/C [26] 3.21% | viability, T/C [27] 3.09% | viability, T/C [28] 2.69% | viability, T/C [29] 2.86% | viability, T/C [30] 1.68% | viability, T/C [31] 2.87% | viability, T/C [32] 3.1% | viability, T/C [33] 3.6% | viability, T/C [34] 2.65% | viability, T/C [35] 2.34% | viability, T/C [36] 1.27%
< 0.0316 µM: IC50 (second compound 1 µM) | IC50 (second compound 3.16 µM) | IC50 (second compound 10 µM)
inactive: viability, T/C [1] 101% | viability, T/C [2] 76.3% | viability, T/C [3] 99.2% | viability, T/C [4] 78.7% | viability, T/C [5] 89.2% | viability, T/C [6] 60.1% | viability, T/C [7] 88.4% | viability, T/C [8] 70.3% | viability, T/C [9] 68.4% | viability, T/C [10] 81.6% | viability, T/C [11] 91.4% | viability, T/C [12] 62.2% | viability, T/C [13] 66.2% | viability, T/C [14] 40% | viability, T/C [15] 69.3% | viability, T/C [16] 58.6% | viability, T/C [17] 58.7% | viability, T/C [18] 12.7%
> 10 µM: IC50 (second compound 0.0316 µM) | IC50 (second compound 0.1 µM)

C=CC(=O)N1CCN(c2nc(=O)n(-c3c(C)ccnc3C(C)C)c3nc(-c4c(O)cccc4F)c(F)cc23)C(C)C1 (centres undefined) + CN(C)c1ccc(Nc2c3ccc(NC(=O)CCN4CCCC4)cc3nc3cc(NC(=O)CCN4CCCC4)ccc23)cc1
4.88 µM: IC50 (second compound 10 µM)
inactive: viability, T/C [1] 99.1% | viability, T/C [2] 100% | viability, T/C [3] 106% | viability, T/C [4] 90.7% | viability, T/C [5] 104% | viability, T/C [6] 90.5% | viability, T/C [7] 99.7% | viability, T/C [8] 90.3% | viability, T/C [9] 96.3% | viability, T/C [10] 88.5% | viability, T/C [11] 111% | viability, T/C [12] 104% | viability, T/C [13] 91.5% | viability, T/C [14] 75.2% | viability, T/C [15] 88.4% | viability, T/C [16] 83.3% | viability, T/C [17] 111% | viability, T/C [18] 83.3% | viability, T/C [19] 90.1% | viability, T/C [20] 70.3% | viability, T/C [21] 93.7% | viability, T/C [22] 108% | viability, T/C [23] 106% | viability, T/C [24] 95.1% | viability, T/C [25] 86% | viability, T/C [26] 86.4% | viability, T/C [27] 101% | viability, T/C [28] 99.5% | viability, T/C [29] 99.5% | viability, T/C [30] 77.8% | viability, T/C [31] 62.6% | viability, T/C [32] 58.7% | viability, T/C [33] 67.2% | viability, T/C [34] 71.8% | viability, T/C [35] 64.1% | viability, T/C [36] 26.3%
> 10 µM: IC50 (second compound 0.0316 µM) | IC50 (second compound 0.1 µM) | IC50 (second compound 0.316 µM) | IC50 (second compound 1 µM) | IC50 (second compound 3.16 µM)
